Measured values taken from ChEMBL document CHEMBL3813672, “Discovery of anti-cancer activity for benzo[1,2,4]triazin-7-ones: Very strong correlation to pleurotin and thioredoxin reductase inhibition” (Bioorg Med Chem, 2016).
pIC50: −log10 of the molar value.

Columns and labels:
[1] = system: T47D; experiment: Growth inhibition of human T47D cells assessed as cell growth at 10 uM incubated for 48 hrs by sulforhodamine B assay relative to control; assay type: functional; settings: read-out: Activity
[2] = system: 786-0; experiment: Growth inhibition of human 786-0 cells assessed as cell growth at 10 uM incubated for 48 hrs by sulforhodamine B assay relative to control; assay type: functional; settings: 786-0, 48 h, read-out: Activity
[3] = Growth inhibition of human PC3 cells assessed as cell growth at 10 uM incubated for 48 hrs by sulforhodamine B assay relative to control; assay type: functional; settings: PC-3, 48 h, read-out: Activity
[4] = system: ACHN; experiment: Growth inhibition of human ACHN cells assessed as cell growth at 10 uM incubated for 48 hrs by sulforhodamine B assay relative to control; assay type: functional; settings: read-out: Activity
[5] = system: MDA-MB-231; experiment: Growth inhibition of human MDA-MB-231/ATCC cells assessed as cell growth at 10 uM incubated for 48 hrs by sulforhodamine B assay relative to control; assay type: functional; settings: MDA-MB-231, 48 h, read-out: Activity
[6] = Growth inhibition of human HL-60(TB) cells assessed as cell growth at 10 uM incubated for 48 hrs by sulforhodamine B assay relative to control; assay type: functional; settings: HL-60, 48 h, read-out: Activity
[7] = system: SK-MEL-5; experiment: Growth inhibition of human SK-MEL-5 cells assessed as cell growth at 10 uM incubated for 48 hrs by sulforhodamine B assay relative to control; assay type: functional; settings: SK-MEL-5, 48 h, read-out: Activity
[8] = Growth inhibition of human SF295 cells assessed as cell growth at 10 uM incubated for 48 hrs by sulforhodamine B assay relative to control; assay type: functional; settings: SF-295, 48 h, read-out: Activity
[9] = Quasi-reversible one electron redox potential in dichloromethane containing 0.1 M TBAP assessed as assessed as redox potential during -1/-2 redox transition at 2 mmol measured at 100 mV/s in presence of Fc/Fc by cyclic voltammetry; assay type: physicochemical
[10] = system: MDA-MB-435; experiment: Growth inhibition of human MDA-MB-435 cells assessed as cell growth at 10 uM incubated for 48 hrs by sulforhodamine B assay relative to control; assay type: functional; settings: MDA-MB-435, 48 h, read-out: Activity
[11] = system: NCI-H322M; experiment: Growth inhibition of human NCI-H322M cells assessed as cell growth at 10 uM incubated for 48 hrs by sulforhodamine B assay relative to control; assay type: functional; settings: read-out: Activity
[12] = Growth inhibition of human IGROV1 cells assessed as cell growth at 10 uM incubated for 48 hrs by sulforhodamine B assay relative to control; assay type: functional; settings: IGROV-1, 48 h, read-out: Activity
[13] = Growth inhibition of human RXF393 cells assessed as cell growth at 10 uM incubated for 48 hrs by sulforhodamine B assay relative to control; assay type: functional; settings: RXF 393, 48 h, read-out: Activity
[14] = Growth inhibition of human RPMI8226 cells assessed as cell growth at 10 uM incubated for 48 hrs by sulforhodamine B assay relative to control; assay type: functional; settings: RPMI-8226, 48 h, read-out: Activity
[15] = Growth inhibition of human UACC62 cells assessed as cell growth at 10 uM incubated for 48 hrs by sulforhodamine B assay relative to control; assay type: functional; settings: UACC-62, 48 h, read-out: Activity
[16] = system: K562; experiment: Growth inhibition of human K562 cells assessed as cell growth at 10 uM incubated for 48 hrs by sulforhodamine B assay relative to control; assay type: functional; settings: K562, 48 h, read-out: Activity
[17] = Growth inhibition of human Caki1 cells assessed as cell growth at 10 uM incubated for 48 hrs by sulforhodamine B assay relative to control; assay type: functional; settings: CAKI-1, 48 h, read-out: Activity
[18] = Growth inhibition of human TK10 cells assessed as cell growth at 10 uM incubated for 48 hrs by sulforhodamine B assay relative to control; assay type: functional; settings: TK-10, 48 h, read-out: Activity
[19] = system: Malme-3M; experiment: Growth inhibition of human MALME-3M cells assessed as cell growth at 10 uM incubated for 48 hrs by sulforhodamine B assay relative to control; assay type: functional; settings: read-out: Activity
[20] = system: MDA-MB-468; experiment: Growth inhibition of human MDA-MB-468 cells assessed as cell growth at 10 uM incubated for 48 hrs by sulforhodamine B assay relative to control; assay type: functional; settings: MDA-MB-468, 48 h, read-out: Activity
[21] = system: HT-29; experiment: Growth inhibition of human HT-29 cells assessed as cell growth at 10 uM incubated for 48 hrs by sulforhodamine B assay relative to control; assay type: functional; settings: HT-29, 48 h, read-out: Activity
[22] = Quasi-reversible one electron redox potential in dichloromethane containing 0.1 M TBAP assessed as redox potential during 0/-1 redox transition at 2 mmol measured at 100 mV/s in presence of Fc/Fc by cyclic voltammetry; assay type: physicochemical
[23] = system: CCRF-CEM; experiment: Growth inhibition of human CCRF-CEM cells assessed as cell growth at 10 uM incubated for 48 hrs by sulforhodamine B assay relative to control; assay type: functional; settings: read-out: Activity
[24] = Growth inhibition of human HOP92 cells assessed as cell growth at 10 uM incubated for 48 hrs by sulforhodamine B assay relative to control; assay type: functional; settings: HOP-92, 48 h, read-out: Activity
[25] = Growth inhibition of human SNB75 cells assessed as cell growth at 10 uM incubated for 48 hrs by sulforhodamine B assay relative to control; assay type: functional; settings: SNB-75, 48 h, read-out: Activity
[26] = system: SK-MEL-2; experiment: Growth inhibition of human SK-MEL-2 cells assessed as cell growth at 10 uM incubated for 48 hrs by sulforhodamine B assay relative to control; assay type: functional; settings: SK-MEL-2, 48 h, read-out: Activity
[27] = Growth inhibition of human OVCAR3 cells assessed as cell growth at 10 uM incubated for 48 hrs by sulforhodamine B assay relative to control; assay type: functional; settings: OVCAR-3, 48 h, read-out: Activity
[28] = Growth inhibition of human COLO205 cells assessed as cell growth at 10 uM incubated for 48 hrs by sulforhodamine B assay relative to control; assay type: functional; settings: COLO 205, 48 h, read-out: Activity
[29] = Growth inhibition of human HCT116 cells assessed as cell growth at 10 uM incubated for 48 hrs by sulforhodamine B assay relative to control; assay type: functional; settings: HCT-116, 48 h, read-out: Activity
[30] = Growth inhibition of human LOXIMVI cells assessed as cell growth at 10 uM incubated for 48 hrs by sulforhodamine B assay relative to control; assay type: functional; settings: LOX IMVI, read-out: Activity
[31] = system: NCI-H226; experiment: Growth inhibition of human NCI-H226 cells assessed as cell growth at 10 uM incubated for 48 hrs by sulforhodamine B assay relative to control; assay type: functional; settings: NCI-H226, 48 h, read-out: Activity
[32] = Growth inhibition of human SW620 cells assessed as cell growth at 10 uM incubated for 48 hrs by sulforhodamine B assay relative to control; assay type: functional; settings: SW-620, 48 h, read-out: Activity
[33] = Growth inhibition of human OVCAR8 cells assessed as cell growth at 10 uM incubated for 48 hrs by sulforhodamine B assay relative to control; assay type: functional; settings: OVCAR-8, 48 h, read-out: Activity
[34] = Cytotoxicity against human DU145 cells assessed as reduction in cell viability after 72 hrs by MTT assay; assay type: functional, cell-based; settings: DU-145, 72 h

O=c1ccc2nc(-c3ccccc3)nn(-c3ccccc3)c-2c1
growth at 10 µM [1]: -36.5% | growth at 10 µM [2]: 48.6% | growth at 10 µM [3]: 43.5% | growth at 10 µM [4]: -96% | growth at 10 µM [5]: 76.3% | growth at 10 µM [6]: -45.5% | growth at 10 µM [7]: 19.5% | growth at 10 µM [8]: 23.9% | Activity [9]: -1.75 V | growth at 10 µM [10]: 24.6% | growth at 10 µM [11]: 66.2% | growth at 10 µM [12]: 2.56% | growth at 10 µM [13]: -92.8% | growth at 10 µM [14]: -6.53% | growth at 10 µM [15]: 30.1% | growth at 10 µM [16]: -39% | growth at 10 µM [17]: -90.9% | growth at 10 µM [18]: -95.9% | growth at 10 µM [19]: -92.5% | growth at 10 µM [20]: -61.6% | growth at 10 µM [21]: -53.5% | Activity [22]: -1.12 V | growth at 10 µM [23]: -16.4% | growth at 10 µM [24]: -33% | growth at 10 µM [25]: 93.2% | growth at 10 µM [26]: 44.6% | growth at 10 µM [27]: -96.2% | growth at 10 µM [28]: -76.8% | growth at 10 µM [29]: -90.7% | growth at 10 µM [30]: -51.6% | growth at 10 µM [31]: 66.1% | growth at 10 µM [32]: -60.5% | growth at 10 µM [33]: -2.36% | pIC50 [34]: 6.64

O=c1ccc2nc(C(F)(F)F)nn(-c3ccccc3)c-2c1
growth at 10 µM [1]: -40.5% | growth at 10 µM [2]: 22.2% | growth at 10 µM [3]: 84.5% | growth at 10 µM [4]: -89% | growth at 10 µM [5]: 61% | growth at 10 µM [6]: -36.6% | growth at 10 µM [7]: 32.7% | growth at 10 µM [8]: 91.9% | Activity [9]: -1.55 V | growth at 10 µM [10]: 62.3% | growth at 10 µM [11]: 99.8% | growth at 10 µM [12]: 71.7% | growth at 10 µM [13]: -20.4% | growth at 10 µM [14]: 45.6% | growth at 10 µM [15]: 66.4% | growth at 10 µM [16]: -35.1% | growth at 10 µM [17]: 56% | growth at 10 µM [18]: -95% | growth at 10 µM [19]: -41.7% | growth at 10 µM [20]: -73.5% | growth at 10 µM [21]: -64.3% | Activity [22]: -0.86 V | growth at 10 µM [23]: -0.27% | growth at 10 µM [24]: 35.2% | growth at 10 µM [25]: 86.5% | growth at 10 µM [26]: 78.3% | growth at 10 µM [27]: -26.1% | growth at 10 µM [28]: -70.7% | growth at 10 µM [29]: 35.2% | growth at 10 µM [30]: 4.3% | growth at 10 µM [31]: 77.7% | growth at 10 µM [32]: -63.3% | growth at 10 µM [33]: 73.1% | pIC50 [34]: 6.07
